PMC9827630, “Intra-colony venom diversity contributes to maintaining eusociality in a cooperatively breeding ant” (BMC Biology, 2023)
Where a SMILES comes first, the peptide text is derived from it. Bridges are numbered along the chain shown (N, C = ends). Where no end group is shown, it is not given here.

Key:
[1] = test system: MM96L cells (melanoma cell line); assay: Cell viability assay, resazurin; type: cell-based; conditions: 100 μM peptide
Procedure: (§1) In addition to the cytotoxicity assays performed by CO-ADD, we screened the synthetic peptides for toxicity in cell viability assays using HAP1, MM96L, and HEK293T cells. peptides were reconstituted in 100% DMSO then diluted in cell media (HAP1: IMDM (Sigma Aldrich) with 10% FBS and 1% Penicillin/Streptomycin (P/S); MM96L: RPMI (Gibco) with 10% FBS, 1% P/S and 1% GlutaMAX (Gibco); HEK293T: DMEM high glucose (Gibco), with 10% FBS and 1% P/S. Trypsinized cells ([…]) were seeded in each well of a 96-well plate. 0.01 to 1000 μM peptide was added to each well after 24 h, and the cells incubated for an additional 74 h. After incubation, the medium was aspirated from each well and 150 μL of fresh medium containing a 0.002% solution of resazurin (Sigma-Aldrich) was added to the wells and incubated for 4 h at 37 °C. The absorbance was measured at 570 nm using a microplate spectrophotometer (FLUOstar Omega, BMG Labtech, Germany). Percentage cell viability at concentrations of 10 and 100 μM peptide were compared with negative control by one-way ANOVA Dunnett’s multiple comparisons test (GraphPad Prism8).

[2] = test system: HEK293T cells; assay: Cell viability assay, resazurin; type: cell-based; conditions: 100 μM peptide
Procedure: as §1

[3] = test system: panel of microbes; assay: Antimicrobial screening, summary over the panel of microbes; type: cell-based; conditions: all strains of the panel (for Rm54a and Rm55a: strains other than S. aureus)
Procedure: (§2) Antimicrobial and cytotoxicity assays were performed by CO-ADD (The Community for Antimicrobial Drug Discovery, Institute for Molecular Bioscience, The University of Queensland). […] Percentage growth inhibition was calculated using negative controls (media only) and positive controls (no peptide). For the hemolysis assays, human whole blood was washed three times with 3 volumes of 0.9% NaCl and then resuspended in 0.9% NaCl to a concentration of 0.5 × 10^8 cells/mL. Cells were incubated for 1 h at 37°C with or without the peptide. After incubation, plates were centrifuged at 1000 g for 10 min to pellet cells and debris and hemolysis determined by measuring the supernatant absorbance at 405 nm.

[4] = test system: Acinetobacter baumannii ATCC 19606; assay: Antimicrobial growth inhibition (CO-ADD); type: cell-based; conditions: for Max response ± SEM: percentage growth inhibition, mean ± SEM; for Max response ± SEM / MIC: absorbance at 600 nm; for MIC: sigmoidal dose-response fit of growth inhibition
Procedure: as §2

[5] = test system: Pseudomonas aeruginosa ATCC 27853; assay: Antimicrobial growth inhibition (CO-ADD); type: cell-based; conditions: absorbance at 600 nm; for Max response ± SEM: percentage growth inhibition, mean ± SEM; for MIC: sigmoidal dose-response fit of growth inhibition
Procedure: as §2

[6] = test system: Escherichia coli ATCC 25922; assay: Antimicrobial growth inhibition (CO-ADD); type: cell-based; conditions: absorbance at 600 nm; for Max response ± SEM: percentage growth inhibition, mean ± SEM; for MIC: sigmoidal dose-response fit of growth inhibition
Procedure: as §2

[7] = test system: Klebsiella pneumoniae ATCC 700603; assay: Antimicrobial growth inhibition (CO-ADD); type: cell-based; conditions: absorbance at 600 nm; for Max response ± SEM: percentage growth inhibition, mean ± SEM; for MIC: sigmoidal dose-response fit of growth inhibition
Procedure: as §2

[8] = test system: Staphylococcus aureus ATCC 43300; assay: Antimicrobial growth inhibition (CO-ADD); type: cell-based; conditions: for Max response ± SEM: percentage growth inhibition, mean ± SEM; for Max response ± SEM / MIC: absorbance at 600 nm; for MIC: sigmoidal dose-response fit of growth inhibition
Procedure: as §2

[9] = test system: Candida albicans ATCC 90028; assay: Antifungal growth inhibition (CO-ADD); type: cell-based; conditions: absorbance at 530 nm; for Max response ± SEM: percentage growth inhibition, mean ± SEM; for MIC: sigmoidal dose-response fit of growth inhibition
Procedure: as §2

[10] = test system: Cryptococcus neoformans var. grubii H99; ATCC 208821; assay: Antifungal growth inhibition (CO-ADD); type: cell-based; conditions: for Max response ± SEM: percentage growth inhibition, difference in absorbance 600 and 570 nm after resazurin, 35°C 2 h, mean ± SEM; for MIC: sigmoidal dose-response fit of growth inhibition, resazurin read-out
Procedure: as §2

[11] = test system: Female fruit flies (D. melanogaster strain Canton-S); assay: Fruit fly injection assay (lethality, paralysis, climbing); type: in vivo, Drosophila melanogaster
Procedure: Female fruit flies (D. melanogaster strain Canton-S) were injected four to six days post-emergence. Female flies were used because their larger size makes injection easier. Groups of eight female flies were assayed in triplicate for each dose tested. Injection needles were formed from glass capillary tubes (#3-000-203-G/X, Drummond, Birmingham, AL, USA) using a micropipette puller (Sutter Instrument Co. Model P-97), with the fine tip manually trimmed afterwards using scissors. Needles then were filled with mineral oil, connected to a Nanoliter 2000 microinjector ([…], Bensenville, IL USA) equipped with a foot pedal, and ~1 μL of peptide solution or water aspirated. Each group of flies were immobilized by cooling for approximately 2 min on ice, and then decanted on the top of the ‘injection stage’, a petri dish filled with ice. Under a dissecting microscope, each fly was carefully impaled on the lateral thorax behind the wing, and 50.6 nL of venom peptide or water was injected. After injection, each group of flies were returned to their 5 mL plastic tube at room temperature and their behavior observed.

[12] = test system: F11; assay: Ion permeability F11; type: cell-based, mouse; conditions: ions listed as permeant; - = none
[13] = test system: F11 (mouse neuroblastoma × rat dorsal root ganglion (DRG) neuron hybrid) cells; assay: Calcium imaging of F11 cells (FLIPR); type: cell-based; conditions: increase in [Ca2+]i, max-min fluorescence over 300 s; read-out: EC50 (F11 cells, Table S2)
Procedure: F11 (mouse neuroblastoma × rat dorsal root ganglion (DRG) neuron hybrid) cells were cultured as previously described. Cells were maintained on Ham’s F12 media supplemented with 10 % fetal bovine serum, 100 μM hypoxanthine, 0.4 μM aminopterin, and 16 μM thymidine (Hybri-MaxTM, Sigma Aldrich). 384-well imaging plates (Corning, Lowell, MA, USA) were seeded 48 h prior to imaging resulting in 90 – 95% confluence at imaging. Cells were incubated for 30 min with Calcium 4 assay component A, as per the manufacturer’s instructions (Molecular Devices, Sunnyvale, CA) in physiological salt solution (PSS; composition in mM: 140 NaCl, 11.5 D-glucose, 5.9 KCl, 1.4 MgCl2, 1.2 NaH2PO4, 5 NaHCO3, 1.8 CaCl2, 10 HEPES) at 37°C. […] Signals were read every second for 10 s before, and 300 s after, the addition of peptides in PSS supplemented with 0.1% bovine serum albumin. All data represent mean ± SEM of a representative assay in triplicate. Fluorescence changes on peptide addition were compared to addition of negative control solution (0.1% BSA in PSS). The resulting maximum-minimum fluorescence in the 300 s period after peptide addition was recorded as the response.

[14] = test system: HAP1 cells; assay: Cell viability assay, resazurin; type: cell-based
Procedure: as §1

[15] = test system: HEK; assay: Ion permeability HEK; type: cell-based, Human; conditions: ions listed as permeant; - = none
[16] = test system: Human embryonic kidney cells ATCC CRL-1573; assay: Cytotoxicity assay (CO-ADD), resazurin; type: cell-based; conditions: resazurin fluorescence
Procedure: as §2

[17] = test system: Human red blood cells; assay: Hemolysis assay (CO-ADD); type: cell-based; conditions: 1 h at 37°C, absorbance at 405 nm; sigmoidal dose-response fit
Procedure: as §2

[18] = test system: House crickets (Acheta domesticus); assay: Insect incapacitation assay, house crickets; type: in vivo
Procedure: House crickets (A. domesticus; Pisces Live Food, QLD, Australia) (average mass 50 mg), were injected intra-abdominally with 40 nmol/g of each synthetic peptide (in 2 μL water). […] Lethality was assessed at 24 h. […] To calculate dose-response curves, a four-parameter Hill equation with variable Hill slope was fitted to the data (GraphPad Prism 8.02). All data are expressed as the mean ± standard error of the mean (SEM) and are representative of at least three independent data points. The percentage of crickets incapacitated by a dose of 40 nmol/g, was compared with negative control (water injection) by one-way ANOVA Dunnett’s multiple comparisons test (GraphPad Prism8).

Compound | Growth inhibition over the microbial strains examined [3] | Max response ± SEM [4] | MIC [4] [µM] | Max response ± SEM [5] | MIC [5] [µM] | Max response ± SEM [6] | MIC [6] [µM] | Max response ± SEM [7] | MIC [7] [µM] | Max response ± SEM [8] | MIC [8] [µM] | Max response ± SEM [9] | MIC [9] [µM] | Max response ± SEM [10] | MIC [10] [µM] | ion permeability F11 [12] | EC50 [13] [µM] | ion permeability HEK [15] | further results
CC[C@H](C)[C@H](NC(=O)[C@H](CCC(=O)O)NC(=O)[C@H](CCC(N)=O)NC(=O)[C@H](CCSC)NC(=O)[C@H](CC(N)=O)NC(=O)[C@@H](N)CO)C(=O)N[C@@H](CCSC)C(=O)N[C@@H](CCCCN)C(=O)N[C@@H](CCCCN)C(=O)N[C@@H](CC(C)C)C(=O)N[C@H]1CSSC[C@@H](C(=O)N[C@@H](CCCCN)C(=O)N[C@@H](CCSC)C(=O)N[C@@H](CC(C)C)C(=O)NCC(=O)N[C@@H](CC(C)C)C(=O)O)NC(=O)[C@H](CCSC)NC(=O)[C@H](Cc2c[nH]c3ccccc23)NC(=O)[C@H](C)NC(=O)[C@@H]2CCCN2C(=O)[C@H](CCSC)NC(=O)[C@H](CCCCN)NC(=O)[C@H](CCCCN)NC(=O)[C@H](CC(=O)O)NC(=O)[C@H]([C@@H](C)O)NC1=O [Rm9a] (H-SNMQEIMKKLCTDKKMPAWMCKMLGL-OH; disulfide 11-21; N-terminus assumed) | no inhibitory activity | 9 ± 0 | >11 | 5 ± 3 | >11 | 3 ± 2 | >11 | 5 ± 2 | >11 | 3 ± 5 | >11 | 1 ± 2 | >11 | -86 ± 5 | >11 |  |  |  | Cytotoxicity against MM96L cells [1]: cytotoxic to both HEK293T and MM96L cells; Cytotoxicity against HEK293T cells [2]: cytotoxic to both HEK293T and MM96L cells
FIGGLIKFIAKFVPKILPFFQKKN-OH [Rm34a] | complete or near-complete growth inhibition of all microbial strains | 100 ± 0 | ≤0.09 | 85 ± 6 | 11 | 98 ± 0 | 8.6 | 70 ± 28 | 11 | 102 ± 2 | ≤0.09 | 100 ± 2 | 0.72 | 101 ± 0 | 6.1 | Ca2+,Na+,Th+ | 4.8 | Ca2+,Na+,Th+ | Motor behavior (climbing assay) ([11]; 5 nmol/g injected, climbing assay 5 min after injection, significant versus control): disrupted motor behavior; Cytotoxicity to HAP cells [14]: cytotoxic to HAP cells; HAP cell viability ([14]; 10 μM peptide, n = 3 per group): significantly reduced HAP cell viability; EC50 ([4]; summary of Table S2): ≤ 90 nM; EC50 ([8]; summary of Table S2): ≤ 90 nM; Max response ± SEM ([16]; percentage growth inhibition, 37°C 5% CO2, mean ± SEM): 57 ± 5; CC50 (concentration at 50% cytotoxicity) ([16]; sigmoidal dose-response fit): 1.7 µM; HC50 (concentration at 50% hemolytic activity) [17]: 3.3 µM
VAPIVAMAGLGLFAAAVAGLDWLSKKV-NH2 [Rm1a] |  | 3 ± 2 | >12 | -2 ± 9 | >12 | 9 ± 3 | >12 | 0 ± 2 | >12 | -19 ± 7 | >12 | 67 ± 4 | >12 | 36 ± 7 | >12 | Ca2+,Na+,Th+ | 5.7 | Ca2+,Na+,Th+ | Flies dead ([11]; 50 pmol/g injected, mean ± SD): 25.0 ± 12.5%; Flies paralyzed ([11]; 50 pmol/g injected, mean ± SD): 95.8 ± 7.2%; Instant death of flies ([11]; 5 nmol/g injected, groups of eight female flies in triplicate, mean ± SD): 100 ± 0%; LD50 5 min (dose required to kill 50% of flies 5 min after injection) ([11]; D. melanogaster, 5 min after injection): 0.17 nmol/g; PD50 5 min (dose required to paralyze 50% of flies within 5 min) ([11]; D. melanogaster, within 5 min): 23 pmol/g; Lethality in crickets at lowest dose tested ([18]; 40 pmol/g, intra-abdominal injection, lethality assessed at 24 h): ultimately lethal; Incapacitation of crickets ([18]; 40 nmol/g, intra-abdominal injection, observed 30 min): able to incapacitate crickets; Onset of incapacitation in crickets ([18]; 40 and 4 nmol/g, delayed at lower doses): immediate; PD50 30 min (dose required to paralyze 50% of crickets 30 min after injection) ([18]; intra-abdominal injection, n = 3 per group): 0.3 nmol/g
